From the supplement of paper PMC10307832

Experiments:
Assay in all cases: relative viability (nuclei count vs DMSO), 5 days (fraction); higher = more cells survive
Cediranib + Bortezomib = compound: COc1cc2c(Oc3ccc4[nH]c(C)cc4c3F)ncnc2cc1OCCCN1CCCC1 [Cediranib] + CC(C)C[C@H](NC(=O)[C@H](Cc1ccccc1)NC(=O)c1cnccn1)B(O)O [Bortezomib] (partner 0.002 µM)
Method in brief: (§1)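 Lung cancer cell lines in 1536-well plates were dosed by pin tool the day after seeding, either with one drug alone or with a fixed anchor-drug dose plus five library-drug doses (not always all listed) in √10 steps. After 5 days, cells were fixed and their nuclei stained in one step (final 0.05% Triton X-100, 1% formaldehyde, 1 ug/ml Hoechst), then counted on 4× images. Relative viability is the nuclei count in treated wells divided by that in vehicle wells. Values are medians of duplicate plates.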

Cediranib + Dasatinib = compound: COc1cc2c(Oc3ccc4[nH]c(C)cc4c3F)ncnc2cc1OCCCN1CCCC1 [Cediranib] + Cc1nc(Nc2ncc(C(=O)Nc3c(C)cccc3Cl)s2)cc(N2CCN(CCO)CC2)n1 [Dasatinib] (partner 0.075 µM)
Method in brief: as §1

[1] = compound: O=C(C[C@H]1NCCC[C@@H]1O)Cn1cnc2cc(Br)c(Cl)cc2c1=O (racemic) [Halofuginone] + CC(=O)c1c(C)c2cnc(Nc3ccc(N4CCNCC4)cn3)nc2n(C2CCCC2)c1=O [Palbociclib] (partner 0.5 µM)
Method in brief: as §1

[2] = compound: O=C(C[C@H]1NCCC[C@@H]1O)Cn1cnc2cc(Br)c(Cl)cc2c1=O (racemic) [Halofuginone] + Nc1nc2[nH]cc(CCc3ccc(C(=O)N[C@@H](CCC(=O)O)C(=O)O)cc3)c2c(=O)[nH]1 [Pemetrexed] (partner 0.2 µM)
Method in brief: as §1

NCI-H1355 was tested, and the relative viability (Cediranib + Bortezomib; first compound 0.04 µM) was 1.18, the relative viability (Cediranib + Bortezomib; first compound 0.1265 µM) was 1.17 and the relative viability (Cediranib + Bortezomib; first compound 0.4 µM) was 1.23. For the same cell line, the relative viability (Cediranib + Bortezomib; first compound 1.265 µM) was 1.24, the relative viability (Cediranib + Bortezomib; first compound 4 µM) was 1.21 and the relative viability (Cediranib + Dasatinib; first compound 0.04 µM) was 0.686. It also gave a relative viability (Cediranib + Dasatinib; first compound 0.1265 µM) of 0.745, a relative viability (Cediranib + Dasatinib; first compound 0.4 µM) of 0.658 and a relative viability (Cediranib + Dasatinib; first compound 1.265 µM) of 0.655. The relative viability (Cediranib + Dasatinib; first compound 4 µM) was 0.747, the relative viability ([1]; first compound 0.001 µM) was 0.414 and the relative viability ([1]; first compound 0.003162 µM) was 0.435. It also gave a relative viability ([1]; first compound 0.01 µM) of 0.368, a relative viability ([1]; first compound 0.03162 µM) of 0.413 and a relative viability ([1]; first compound 0.1 µM) of 0.38. For the same cell line, the relative viability ([2]; first compound 0.001 µM) was 1.07, the relative viability ([2]; first compound 0.003162 µM) was 1 and the relative viability ([2]; first compound 0.01 µM) was 1.02. The relative viability ([2]; first compound 0.03162 µM) was 1.03 and the relative viability ([2]; first compound 0.1 µM) was 0.919.
COR-L23 was tested, and the relative viability (Cediranib + Bortezomib; first compound 0.04 µM) was 0.944, the relative viability (Cediranib + Bortezomib; first compound 0.1265 µM) was 1.05 and the relative viability (Cediranib + Bortezomib; first compound 0.4 µM) was 0.867. For the same cell line, the relative viability (Cediranib + Bortezomib; first compound 1.265 µM) was 0.969, the relative viability (Cediranib + Bortezomib; first compound 4 µM) was 1.18 and the relative viability (Cediranib + Dasatinib; first compound 0.04 µM) was 0.522. For the same cell line, the relative viability (Cediranib + Dasatinib; first compound 0.1265 µM) was 0.503, the relative viability (Cediranib + Dasatinib; first compound 0.4 µM) was 0.499 and the relative viability (Cediranib + Dasatinib; first compound 1.265 µM) was 0.57. For the same cell line, the relative viability (Cediranib + Dasatinib; first compound 4 µM) was 0.662, the relative viability ([1]; first compound 0.001 µM) was 0.328 and the relative viability ([1]; first compound 0.003162 µM) was 0.303. It also gave a relative viability ([1]; first compound 0.01 µM) of 0.344, a relative viability ([1]; first compound 0.03162 µM) of 0.292 and a relative viability ([1]; first compound 0.1 µM) of 0.139. For the same cell line, the relative viability ([2]; first compound 0.001 µM) was 0.212, the relative viability ([2]; first compound 0.003162 µM) was 0.19 and the relative viability ([2]; first compound 0.01 µM) was 0.2. For the same cell line, the relative viability ([2]; first compound 0.03162 µM) was 0.192 and the relative viability ([2]; first compound 0.1 µM) was 0.183.
With NCI-H2023 the relative viability (Cediranib + Bortezomib; first compound 0.04 µM) was 1.04, the relative viability (Cediranib + Bortezomib; first compound 0.1265 µM) was 0.447 and the relative viability (Cediranib + Bortezomib; first compound 0.4 µM) was 0.897. For the same cell line, the relative viability (Cediranib + Bortezomib; first compound 1.265 µM) was 0.849, the relative viability (Cediranib + Bortezomib; first compound 4 µM) was 1.02 and the relative viability (Cediranib + Dasatinib; first compound 0.04 µM) was 0.594. It also gave a relative viability (Cediranib + Dasatinib; first compound 0.1265 µM) of 0.623, a relative viability (Cediranib + Dasatinib; first compound 0.4 µM) of 0.567 and a relative viability (Cediranib + Dasatinib; first compound 1.265 µM) of 0.537. It also gave a relative viability (Cediranib + Dasatinib; first compound 4 µM) of 0.668, a relative viability ([1]; first compound 0.001 µM) of 0.406 and a relative viability ([1]; first compound 0.003162 µM) of 0.361. For the same cell line, the relative viability ([1]; first compound 0.01 µM) was 0.374, the relative viability ([1]; first compound 0.03162 µM) was 0.138 and the relative viability ([1]; first compound 0.1 µM) was 0.0623. For the same cell line, the relative viability ([2]; first compound 0.001 µM) was 0.297, the relative viability ([2]; first compound 0.003162 µM) was 0.185 and the relative viability ([2]; first compound 0.01 µM) was 0.213. It also gave a relative viability ([2]; first compound 0.03162 µM) of 0.152 and a relative viability ([2]; first compound 0.1 µM) of 0.0841.
Work on A-427 yielded a relative viability (Cediranib + Bortezomib; first compound 0.04 µM) of 0.998, a relative viability (Cediranib + Bortezomib; first compound 0.4 µM) of 0.972 and a relative viability (Cediranib + Bortezomib; first compound 1.265 µM) of 0.925. For the same cell line, the relative viability (Cediranib + Bortezomib; first compound 4 µM) was 1.01, the relative viability (Cediranib + Dasatinib; first compound 0.04 µM) was 0.683 and the relative viability (Cediranib + Dasatinib; first compound 0.4 µM) was 0.672. The relative viability (Cediranib + Dasatinib; first compound 1.265 µM) was 0.596, the relative viability (Cediranib + Dasatinib; first compound 4 µM) was 0.919 and the relative viability ([1]; first compound 0.001 µM) was 0.526. For the same cell line, the relative viability ([1]; first compound 0.003162 µM) was 0.538, the relative viability ([1]; first compound 0.01 µM) was 0.534 and the relative viability ([1]; first compound 0.03162 µM) was 0.49. The relative viability ([1]; first compound 0.1 µM) was 0.479, the relative viability ([2]; first compound 0.001 µM) was 1 and the relative viability ([2]; first compound 0.003162 µM) was 1.03. For the same cell line, the relative viability ([2]; first compound 0.01 µM) was 0.945, the relative viability ([2]; first compound 0.03162 µM) was 0.946 and the relative viability ([2]; first compound 0.1 µM) was 0.887.
Cell Line LU99A has a relative viability (Cediranib + Bortezomib; first compound 0.04 µM) of 1.27, a relative viability (Cediranib + Bortezomib; first compound 0.4 µM) of 1.12 and a relative viability (Cediranib + Bortezomib; first compound 1.265 µM) of 0.942. The relative viability (Cediranib + Bortezomib; first compound 4 µM) was 1.17, the relative viability (Cediranib + Dasatinib; first compound 0.04 µM) was 0.504 and the relative viability (Cediranib + Dasatinib; first compound 0.1265 µM) was 0.465. It also gave a relative viability (Cediranib + Dasatinib; first compound 0.4 µM) of 0.513, a relative viability (Cediranib + Dasatinib; first compound 1.265 µM) of 0.433 and a relative viability (Cediranib + Dasatinib; first compound 4 µM) of 0.655. For the same cell line, the relative viability ([1]; first compound 0.001 µM) was 0.444, the relative viability ([1]; first compound 0.003162 µM) was 0.466 and the relative viability ([1]; first compound 0.01 µM) was 0.393. It also gave a relative viability ([1]; first compound 0.03162 µM) of 0.401, a relative viability ([1]; first compound 0.1 µM) of 0.41 and a relative viability ([2]; first compound 0.001 µM) of 0.218. For the same cell line, the relative viability ([2]; first compound 0.003162 µM) was 0.157, the relative viability ([2]; first compound 0.01 µM) was 0.16 and the relative viability ([2]; first compound 0.03162 µM) was 0.163. The relative viability ([2]; first compound 0.1 µM) was 0.181.
For NCI-H2009, the relative viability (Cediranib + Bortezomib; first compound 0.04 µM) was 0.934, the relative viability (Cediranib + Bortezomib; first compound 0.1265 µM) was 0.246 and the relative viability (Cediranib + Bortezomib; first compound 0.4 µM) was 1.04. For the same cell line, the relative viability (Cediranib + Bortezomib; first compound 1.265 µM) was 0.943, the relative viability (Cediranib + Bortezomib; first compound 4 µM) was 1.12 and the relative viability (Cediranib + Dasatinib; first compound 0.04 µM) was 0.311. For the same cell line, the relative viability (Cediranib + Dasatinib; first compound 0.1265 µM) was 0.523, the relative viability (Cediranib + Dasatinib; first compound 0.4 µM) was 0.301 and the relative viability (Cediranib + Dasatinib; first compound 1.265 µM) was 0.297. It also gave a relative viability (Cediranib + Dasatinib; first compound 4 µM) of 0.309, a relative viability ([1]; first compound 0.001 µM) of 0.349 and a relative viability ([1]; first compound 0.003162 µM) of 0.252. For the same cell line, the relative viability ([1]; first compound 0.01 µM) was 0.218, the relative viability ([1]; first compound 0.03162 µM) was 0.201 and the relative viability ([1]; first compound 0.1 µM) was 0.157. It also gave a relative viability ([2]; first compound 0.001 µM) of 1.04, a relative viability ([2]; first compound 0.003162 µM) of 0.999 and a relative viability ([2]; first compound 0.01 µM) of 0.999. For the same cell line, the relative viability ([2]; first compound 0.03162 µM) was 0.977 and the relative viability ([2]; first compound 0.1 µM) was 0.548.
